The text below walks through data of patent US20260356830A1, “COMPOUNDS FOR MODULATING RET PROTEIN” (Bristol-Myers Squibb Company, priority 2022, published 2026).

The target of this test is T1, CCDC6-RET (Homo sapiens, UniProt P07949+Q16204+Q96SW2).
T1 construct: CCDC6 (natural N-terminal fusion partner, UniProt Q16204); endogenous in cells; host or cells: TPC-1 (parental, papillary thyroid carcinoma)
The test can be described thus: Cellular RET degradation, AlphaLISA, TPC-1 cell line. The format is cell-based. The note with it: for Dmax: TPC1, human, 24 h, read-out: Cell Density TPC-1/CCDC6-RET Ymax %; for DC50: read-out: Cell Density TPC-1/CCDC6-RET DC50, half-maximal degradation concentration, TPC-1 (CCDC6-RET), 24 hrs. The essentials:
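Luminescent AlphaLISA read of RET abundance in lysates after 24 h compound exposure (37 °C, 2% FBS DMEM) of CCDC6-RET-bearing TPC-1 cells. % degradation relative to DMSO (high) and media (low) controls, fitted to 4-parameter logistic curve for DC50 and Ymax.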

Some results are limits rather than exact numbers.

T1 sequence (Q16204+P07949 fused): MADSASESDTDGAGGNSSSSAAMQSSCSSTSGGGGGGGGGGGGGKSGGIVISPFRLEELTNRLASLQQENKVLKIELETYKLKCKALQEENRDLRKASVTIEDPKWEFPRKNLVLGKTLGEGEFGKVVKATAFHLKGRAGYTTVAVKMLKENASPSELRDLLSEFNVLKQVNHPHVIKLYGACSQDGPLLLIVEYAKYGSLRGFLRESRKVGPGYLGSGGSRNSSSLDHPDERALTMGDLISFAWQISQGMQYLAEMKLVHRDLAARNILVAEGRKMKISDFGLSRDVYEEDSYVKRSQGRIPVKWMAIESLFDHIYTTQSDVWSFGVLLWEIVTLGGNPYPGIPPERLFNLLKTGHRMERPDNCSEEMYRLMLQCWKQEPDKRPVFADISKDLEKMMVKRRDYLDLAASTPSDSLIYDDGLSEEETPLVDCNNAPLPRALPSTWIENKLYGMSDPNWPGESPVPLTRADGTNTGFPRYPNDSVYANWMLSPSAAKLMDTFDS
T1 sequence (Q96SW2 whole entry, the tested form may be a part): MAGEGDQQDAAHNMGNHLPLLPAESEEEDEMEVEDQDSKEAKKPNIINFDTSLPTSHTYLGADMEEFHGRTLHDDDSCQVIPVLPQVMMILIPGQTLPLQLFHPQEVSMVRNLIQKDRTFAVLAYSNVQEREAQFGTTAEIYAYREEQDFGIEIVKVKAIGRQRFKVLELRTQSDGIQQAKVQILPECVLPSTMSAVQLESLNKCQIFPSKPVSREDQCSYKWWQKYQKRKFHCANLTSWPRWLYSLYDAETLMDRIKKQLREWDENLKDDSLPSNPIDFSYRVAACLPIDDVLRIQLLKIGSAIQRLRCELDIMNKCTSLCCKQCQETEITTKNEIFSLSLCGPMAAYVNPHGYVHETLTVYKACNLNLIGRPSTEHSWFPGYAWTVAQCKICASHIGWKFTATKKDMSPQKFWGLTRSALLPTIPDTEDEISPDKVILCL
T1 sequence (Q16531 whole entry partner, the tested form may be a part): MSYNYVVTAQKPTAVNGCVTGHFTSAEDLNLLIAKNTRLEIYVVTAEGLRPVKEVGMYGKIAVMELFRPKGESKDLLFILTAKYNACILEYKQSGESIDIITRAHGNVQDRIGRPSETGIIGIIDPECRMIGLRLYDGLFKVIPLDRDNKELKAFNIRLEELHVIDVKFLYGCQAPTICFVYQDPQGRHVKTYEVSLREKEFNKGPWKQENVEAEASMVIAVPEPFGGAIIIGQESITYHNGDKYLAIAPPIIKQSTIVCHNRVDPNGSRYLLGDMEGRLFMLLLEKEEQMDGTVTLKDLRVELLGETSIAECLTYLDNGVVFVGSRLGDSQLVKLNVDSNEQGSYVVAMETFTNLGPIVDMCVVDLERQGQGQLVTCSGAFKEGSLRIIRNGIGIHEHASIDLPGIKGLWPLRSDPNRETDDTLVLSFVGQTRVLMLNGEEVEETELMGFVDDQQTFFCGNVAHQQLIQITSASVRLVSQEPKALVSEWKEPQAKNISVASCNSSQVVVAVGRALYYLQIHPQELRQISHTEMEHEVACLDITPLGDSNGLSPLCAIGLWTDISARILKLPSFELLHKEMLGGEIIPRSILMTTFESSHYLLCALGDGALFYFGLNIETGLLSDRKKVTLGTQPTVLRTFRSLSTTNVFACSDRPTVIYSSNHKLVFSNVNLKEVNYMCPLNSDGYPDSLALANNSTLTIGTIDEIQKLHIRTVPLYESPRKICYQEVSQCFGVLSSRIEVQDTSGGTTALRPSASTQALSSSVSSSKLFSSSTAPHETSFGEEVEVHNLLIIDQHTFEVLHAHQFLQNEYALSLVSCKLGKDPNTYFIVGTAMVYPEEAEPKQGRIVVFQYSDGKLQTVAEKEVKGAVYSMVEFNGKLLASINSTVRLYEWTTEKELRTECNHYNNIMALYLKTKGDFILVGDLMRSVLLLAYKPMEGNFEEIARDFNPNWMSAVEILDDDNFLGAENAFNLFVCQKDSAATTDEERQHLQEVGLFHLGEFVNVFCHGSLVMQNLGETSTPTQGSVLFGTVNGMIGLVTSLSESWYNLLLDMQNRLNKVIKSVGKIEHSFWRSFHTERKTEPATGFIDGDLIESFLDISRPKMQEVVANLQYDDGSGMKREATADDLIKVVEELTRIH

Consider `CCOc1cc(-c2ccc(N3CCC(CN(C(=O)CCCCCCN4CCC(c5ccc6c(c5)C(=O)N(C5CCC(=O)NC5=O)C6)CC4)C(C)C)(NC(=O)c4cc(F)ccc4F)CC3)nc2)c2c(C#N)cnn2c1` (stereo not drawn) [Example 171, N-[1-(5-{3-cyano-6-ethoxypyrazolo[1,5-a]pyridin-4-yl}pyridin-2-yl)-4-[(7-{4-[2-(2,6-dioxopiperidin-3-yl)-3-oxo-2,3-dihydro-1H-isoindol-5-yl]piperidin-1-yl}-N-(propan-2-yl)heptanamido)methyl]piperidin-4-yl]-2,5-difluorobenzamide], for which the Dmax is greater than 90% and the DC50 was in the range of 2 to 10 nM.

Regarding `CCOc1cc(-c2ccc(N3CCC(CN4CCN(C(=O)CCCCCCN5CCN(c6ccc7c(c6)CN(C6CCC(=O)NC6=O)C7=O)CC5)CC4)(NC(=O)CC(C)C)CC3)nc2)c2c(C#N)cnn2c1` (stereo not drawn) [Example 3, N-(1-(5-(3-cyano-6-ethoxypyrazolo[1,5-a]pyridin-4-yl)pyridin-2-yl)-4-((4-(7-(4-(2-(2,6-dioxopiperidin-3-yl)-1-oxoisoindolin-5-yl)piperazin-1-yl)heptanoyl)piperazin-1-yl)methyl)piperidin-4-yl)-3-methylbutanamide], the Dmax is greater than 90% and the DC50 was 2 to 10 nM.

For `CCOc1cc(-c2ccc(N3CCC(C)(CN4CCN(C(=O)CCN5CCC(c6ccc7c(c6)CN(C6CCC(=O)NC6=O)C7=O)CC5)CC4)CC3)nc2)c2c(C#N)cnn2c1` (stereo not drawn) [Example 129, 4-[6-(4-{[4-(3-{4-[2-(2,6-dioxopiperidin-3-yl)-1-oxo-2,3-dihydro-1H-isoindol-5-yl]piperidin-1-yl}propanoyl)piperazin-1-yl]methyl}-4-methylpiperidin-1-yl)pyridin-3-yl]-6-ethoxypyrazolo[1,5-a]pyridine-3-carbonitrile], the Dmax lay in the range of 60 to 90% and the DC50 was in the range of 100 to 2000 nM.

As for `CCOc1cc(-c2ccc(N3CCC(CN(C(=O)CCCCN4CCN(c5ccc6c(c5)CN(C5CCC(=O)NC5=O)C6=O)CC4)C(C)C)(NC(=O)c4cc(F)ccc4F)CC3)nc2)c2c(C#N)cnn2c1` (stereo not drawn) [Example 164, N-[1-(5-{3-cyano-6-ethoxypyrazolo[1,5-a]pyridin-4-yl}pyridin-2-yl)-4-[(5-{4-[2-(2,6-dioxopiperidin-3-yl)-1-oxo-2,3-dihydro-1H-isoindol-5-yl]piperazin-1-yl}-N-(propan-2-yl)pentanamido)methyl]piperidin-4-yl]-2,5-difluorobenzamide], the Dmax was greater than 90% and the DC50 was 2 to 10 nM.

For the compound `CCOc1cc(-c2ccc(N3CCC(CN4CCN(C(=O)CCOCCNc5ccc6c(N7CCC(=O)NC7=O)nn(C)c6c5)CC4)(NC(=O)c4cc(F)ccc4F)CC3)nc2)c2c(C#N)cnn2c1` [Example 105, N-[1-(5-{3-cyano-6-ethoxypyrazolo[1,5-a]pyridin-4-yl}pyridin-2-yl)-4-({4-[3-(2-{[3-(2,4-dioxo-1,3-diazinan-1-yl)-1-methyl-1H-indazol-6-yl]amino}ethoxy)propanoyl]piperazin-1-yl}methyl)piperidin-4-yl]-2,5-difluorobenzamide], the Dmax was in the range of 60 to 90% and the DC50 fell in the range of 2 to 10 nM.

Regarding `CCOc1cc(-c2ccc(N3CCC(CN4CCN(C5CC6(CC(C(=O)N7CCN(c8ccc9c(c8)CN(C8CCC(=O)NC8=O)C9=O)CC7)C6)C5)CC4)(NC(=O)c4cc(F)ccc4F)CC3)nc2)c2c(C#N)cnn2c1` (stereo not drawn) [Example 94, N-[1-(5-{3-cyano-6-ethoxypyrazolo[1,5-a]pyridin-4-yl}pyridin-2-yl)-4-{[4-(6-{4-[2-(2,6-dioxopiperidin-3-yl)-1-oxo-2,3-dihydro-1H-isoindol-5-yl]piperazine-1-carbonyl}spiro[3.3]heptan-2-yl)piperazin-1-yl]methyl}piperidin-4-yl]-2,5-difluorobenzamide], the Dmax was in the range of 60 to 90% and the DC50 was in the range of 2 to 10 nM.
